Assay results: patent US10301292B2, “Bicyclic compound” (Takeda Pharmaceutical Company Limited, priority 2014, dated 2019)

Legend:
[1] = test system: collagen I gene expression in the liver; test: Effect on liver fibrosis caused by non-alcoholic steatohepatitis (liver collagen I gene expression); assay type: in vivo; details: LDL receptor deficient mouse, choline-deficient amino acid diet; oral once per day for 3 weeks; normalized by GAPDH; P<0.05 vs. control (FIG. 1)
From the text: The effect of the present compound on liver fibrosis caused by non-alcoholic steatohepatitis was verified by the following method.
For efficacy evaluation of the antifibrotic action, 9-week-old, male, homo low-density lipoprotein receptor deficient mouse was used. The low-density lipoprotein receptor deficient mouse was purchased from Jackson Laboratories (Bar Harbor, Me., USA) and bred in Takeda Pharmaceutical Industry. To induce non-alcoholic steatohepatitis, a choline-deficient amino acid diet (A08111307, Research Diets, New Brunswick, N.J., USA) was fed.
Before administration of the test compound (specifically, compound shown in Example 98), a choline-deficient amino acid diet was fed for one week, and the drug administration was started. […]
After administration for 3 weeks, the mouse was sacrificed by euthanasia under isoflurane anesthesia under non-fasting and the liver was removed. […] Using RNeasy Mini Kit (Qiagen, Valencia, Calif., USA), the total RNA was purified, cDNA was prepared using High Capacity cDNA Reverse Transcription Kit (PN4368814, Applied Biosystems, Foster City, Calif., USA), and collagen I expression was quantified (collagen type I alpha 1, Part Number 4351370, Applied Biosystems) by the quantitative PCR method (TaqMan Gene Expression Master Mix, PN4369016, Applied Biosystems). […]

HCT116 cells = test: Growth inhibitory activity on HCT116 cell (CellTiter-Glo); assay type: cell-based; details: Homo sapiens, HCT-116, 72 h, table head: 10 μM (text b2498: 1 μM), 3 days incubation, read-out: HCT116 cell proliferation inhibitory rate (%) at 10 μM
In short: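 HCT116 cells in RPMI with 2% FBS, 900 cells/well, treated the day after seeding and incubated 3 days at 37 °C, 5% CO2. Viability read by CellTiter-Glo luminescence. Percent inhibition calculated relative to untreated wells, with cell-free wells subtracted as background.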

CC(NC(N)=O)c1ccc2nc(-c3ccc(Oc4cccc(OCC5CC5)c4)nc3)oc2c1 (centres unmarked) [Example 98, 1-(1-(2-(6-(3-(cyclopropylmethoxy)phenoxy)pyridin-3-yl)-1,3-benzoxazol-6-yl)ethyl)urea]
expression level of collagen I gene in the liver of a non-alcoholic steatohepatitis model [1]: significantly suppressed | inhibition at 10 µM (HCT116 cells): 25%
